What was measured:
Alpha-glucosidase = Alpha-glucosidase (Saccharomyces cerevisiae S288c, UniProt P53341+P38158+P07265); experiment: Inhibition of Saccharomyces cerevisiae alpha-glucosidase using p-nitrophenyl-alpha-D-glucopyranoside as substrate incubated for 15 mins by UV-visible spectrophotometric analysis; format: protein assay
[1] = Inhibition of alpha-glucosidase (unknown origin) using p-NPG as substrate assessed as inhibition constant preincubated with compound followed by substrate addition and measured by absorbance based analysis; set-up: species or system Homo sapiens

IC50 (Alpha-glucosidase) [nM] | Ki [1] [nM] | SMILES
32000 | – | OC[C@H]1O[C@H](OCc2cn(C[C@H]3O[C@@H]4O[C@H]5[C@H](O)[C@@H](O)[C@@H](O[C@H]6[C@H](O)[C@@H](O)[C@@H](O[C@H]7[C@H](O)[C@@H](O)[C@@H](O[C@H]8[C@H](O)[C@@H](O)[C@@H](O[C@H]9[C@H](O)[C@@H](O)[C@@H](O[C@H]%10[C@H](O)[C@@H](O)[C@@H](O[C@H]%11[C@H](O)[C@@H](O)[C@@H](O[C@H]3[C@H](O)[C@H]4O)O[C@@H]%11Cn3cc(CO[C@H]4O[C@H](CO)[C@@H](O)[C@H](O)[C@@H]4O)nn3)O[C@@H]%10Cn3cc(CO[C@H]4O[C@H](CO)[C@@H](O)[C@H](O)[C@@H]4O)nn3)O[C@@H]9Cn3cc(CO[C@H]4O[C@H](CO)[C@@H](O)[C@H](O)[C@@H]4O)nn3)O[C@@H]8Cn3cc(CO[C@H]4O[C@H](CO)[C@@H](O)[C@H](O)[C@@H]4O)nn3)O[C@@H]7Cn3cc(CO[C@H]4O[C@H](CO)[C@@H](O)[C@H](O)[C@@H]4O)nn3)O[C@@H]6Cn3cc(CO[C@H]4O[C@H](CO)[C@@H](O)[C@H](O)[C@@H]4O)nn3)O[C@@H]5Cn3cc(CO[C@H]4O[C@H](CO)[C@@H](O)[C@H](O)[C@@H]4O)nn3)nn2)[C@@H](O)[C@@H](O)[C@@H]1O
– | 3.9 | COc1c(C(=O)/C=C/c2ccc(Br)cc2)c(OC)c(C(=O)/C=C/c2ccc(Br)cc2)c(OC)c1C(=O)/C=C/c1ccc(Br)cc1

Reference: ChEMBL document CHEMBL5360534, “Synthetic α-glucosidase inhibitors as promising anti-diabetic agents: Recent developments and future challenges” (Eur J Med Chem, 2023)
